Experimental data from patent EP0655439A2, “5,6-Bicyclic glycoprotein IIb IIIa antagonists useful in inhibition of platelet aggregation” (ELI LILLY AND COMPANY, priority 1993, dated 1995).

Columns and labels:
[1] = system: human platelet-rich plasma; experiment: Platelet aggregation assay (PRP), Aggregation-Human/PRP/ADP; format: cell-based; settings: 1 min, 1 minute at 37°C before aggregating agent, most often ADP 5 µM
Description: In addition to the ELISA GPllb-Illa assay previously described the Aggregation-Human/PRP/ADP Assay is useful for evaluating therapeutic compounds.
Platelet-rich plasma was prepared from healthy human volunteers for use in determining inhibition of platelet aggregation by the compounds. Blood was collected via a 21 gauge butterfly cannula, using a two-syringe technique into 1/10 volume of 10% trisodium citrate.
Platelet-rich plasma was prepared at room temperature by centrifugation of the citrated whole blood at 100 x g for 15 minutes. The platelet rich plasma contained approximately 200-400,000 platelets/µl.
Platelet-poor plasma was prepared by centrifugation of citrated whole blood at 12,000 x g for 2 minutes.
Platelet aggregation was assayed in a 4-channel platelet aggregation profiler (PAP-4, Biodata, Hatboro, PA) according to the manufacturers directions. Inhibition of platelet aggregation was studied by adding varying amounts of test compounds to stirred human platelet-rich plasma. Specifically, the human platelet-rich plasma was incubated with test compounds for 1 minute at 37°C prior to the addition of a variety of aggregating agents most often ADP 5 µM, but also 1 µg/ml collagen, 1 µM U46619 or 1 µM platelet activating factor.

[2] = biological target: T1, GPIIb-IIIa (Homo sapiens, UniProt P05106+P08514); experiment: GPIIb-IIIa ELISA assay (inhibition of fibrinogen binding to immobilized receptor); settings: purified platelet GPIIb-IIIa coated on plates; biotinylated fibrinogen 10 nM; 3 hours at 25 °C
T1 construct: Purified platelet GPIIb-IIIa receptor was prepared as described by Fitzgerald, L.A., et al; from tissue; host or cells: platelets (purified by the method of Fitzgerald et al., Anal Biochem 1985)
T1 sequence (P08514 32-887 limits assumed): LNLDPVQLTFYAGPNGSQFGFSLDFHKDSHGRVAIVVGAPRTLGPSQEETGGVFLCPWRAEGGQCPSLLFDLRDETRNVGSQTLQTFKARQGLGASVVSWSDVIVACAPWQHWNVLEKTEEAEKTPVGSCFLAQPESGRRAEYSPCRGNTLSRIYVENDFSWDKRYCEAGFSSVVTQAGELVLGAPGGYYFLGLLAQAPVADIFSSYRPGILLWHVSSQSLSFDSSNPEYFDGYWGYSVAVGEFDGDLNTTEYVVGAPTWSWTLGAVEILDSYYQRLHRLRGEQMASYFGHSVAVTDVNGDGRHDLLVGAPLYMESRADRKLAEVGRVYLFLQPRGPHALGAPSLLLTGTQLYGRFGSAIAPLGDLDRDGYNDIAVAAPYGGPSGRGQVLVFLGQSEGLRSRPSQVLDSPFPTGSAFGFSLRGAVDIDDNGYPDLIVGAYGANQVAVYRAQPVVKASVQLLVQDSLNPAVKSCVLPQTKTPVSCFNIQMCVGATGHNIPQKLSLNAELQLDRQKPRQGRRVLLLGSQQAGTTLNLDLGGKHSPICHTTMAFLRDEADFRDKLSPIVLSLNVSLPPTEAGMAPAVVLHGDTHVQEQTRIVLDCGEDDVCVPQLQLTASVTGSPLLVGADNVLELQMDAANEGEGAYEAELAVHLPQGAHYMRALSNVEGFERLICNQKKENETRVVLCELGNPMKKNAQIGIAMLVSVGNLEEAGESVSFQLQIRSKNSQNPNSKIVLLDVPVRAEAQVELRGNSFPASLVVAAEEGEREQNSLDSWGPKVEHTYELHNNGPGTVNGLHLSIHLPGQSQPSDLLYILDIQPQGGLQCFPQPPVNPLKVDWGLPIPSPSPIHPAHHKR
T1 sequence (P08514 891-1039 partner limits assumed): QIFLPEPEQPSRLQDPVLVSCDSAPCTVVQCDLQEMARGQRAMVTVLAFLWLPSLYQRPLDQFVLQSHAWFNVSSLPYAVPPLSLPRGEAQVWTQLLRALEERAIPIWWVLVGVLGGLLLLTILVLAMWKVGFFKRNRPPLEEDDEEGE
T1 sequence (P05106 27-788): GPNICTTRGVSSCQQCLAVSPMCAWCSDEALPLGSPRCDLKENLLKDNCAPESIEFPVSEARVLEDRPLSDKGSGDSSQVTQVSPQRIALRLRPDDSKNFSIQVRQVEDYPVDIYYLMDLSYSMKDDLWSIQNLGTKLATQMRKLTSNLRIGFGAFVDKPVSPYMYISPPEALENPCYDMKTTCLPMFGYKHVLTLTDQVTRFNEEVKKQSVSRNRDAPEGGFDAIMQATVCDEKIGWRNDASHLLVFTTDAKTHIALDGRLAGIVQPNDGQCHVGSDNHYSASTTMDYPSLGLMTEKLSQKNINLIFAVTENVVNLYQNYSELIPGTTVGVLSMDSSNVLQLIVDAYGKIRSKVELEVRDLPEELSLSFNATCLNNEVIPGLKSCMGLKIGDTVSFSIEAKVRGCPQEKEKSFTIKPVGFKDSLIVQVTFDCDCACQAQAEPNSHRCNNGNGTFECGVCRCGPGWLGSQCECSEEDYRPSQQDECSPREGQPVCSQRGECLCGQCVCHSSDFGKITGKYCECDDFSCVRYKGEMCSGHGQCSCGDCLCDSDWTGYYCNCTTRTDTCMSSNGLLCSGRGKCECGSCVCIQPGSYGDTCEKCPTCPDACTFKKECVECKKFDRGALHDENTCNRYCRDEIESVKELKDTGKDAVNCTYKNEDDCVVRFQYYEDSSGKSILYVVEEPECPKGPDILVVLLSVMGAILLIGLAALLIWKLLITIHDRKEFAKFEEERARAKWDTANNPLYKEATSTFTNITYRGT
Description: In the following assay, GPllb-Illa is prepared in purified form, by a method such as described by Fitzgerald, L.A., et al., Anal Biochem (1985) 151:159-177,(the disclosure of which is incorporated herein by reference). GPIIb-IIIa is coated onto microtiter plates. The coated support is then contacted with fibrinogen and with the test material and incubated for a sufficient time to permit maximal binding of fibrinogen to the immobilized GPIIb-IIIa. Fibrinogen is typically provided at a concentration of about 5-50 nM and the test material can, if desired, be added at a series of dilution. Typical incubations are 2-4 hr at 25°C, the time and temperature being interdependent.
After incubation, the solution containing the fibrinogen and test material is removed and the level of binding of fibrinogen measured by quantitating bound fibrinogen to GPllb-llla. Any suitable means of detection may be used, but it is convenient to employ labeled fibrinogen, for example using biotinylated labels. Such methods are well known in the art.
Purified platelet GPIIb-IIIa receptor was prepared as described by Fitzgerald, L.A., et al., Anal Biochem (1985) 151:169-177. Vitronectin receptor was prepared as described by Smith, J.W., J. Bioi Chem (1988) 263:18726-18731. After purification, the receptors were stored in 0.1% Triton X-100 at 0.1-1.0 mg/ml.
The receptors were coated to the wells of 96-well flat-bottom ELISA plates (Linbro EIA-Plus microtiter plate, Flow Laboratories) after diluting 1:200 with a solution of 20 mM Tris-HCI, 150 MM NaCi, 1 mM CaCl2, pH 7.4, to reduce the Triton x-100 concentration to below its critical micellar concentration and adding an aliquot of 100 ul to each well. The wells were all allowed to incubate overnight at 4°C, and then aspirated to dryness. Additional sites were blocked by the addition of bovine serum albumin (BSA) at 35 mg/ml in the above buffer for 2 hours at 30°C to prevent nonspecific binding. The wells were then washed once with binding buffer ([…] Tris-HCI, 100 mM Nacl 2 mM CaC12, 1 mg/ml BSA).
The corresponding ligands (fibrinogen, von Willebrand Factor, orvitronectin) were conjugated to biotin using commercially available reagents and standard protocols. The labeled ligands were added to the receptor- coated wells at final concentration of 10 nM (100 ul/well) and incubated for 3 hours at 25 °C in the presence or absence of the test samples. After incubation, the wells are aspirated to dryness and bound ligand is quan- titated.
The bound protein is detected by the addition of antibiotin antibody conjugated to alkaline phosphatase followed by addition of substrate (p-nitrcphenyl phosphate), and determination of the optical density of each well at 405 nM. Decreased color development is observed in wells incubated with test samples which inhibit binding of ligand to receptor.

SMILES | IC50 [1] [µM] | IC50 [2] [µM]
N=C(N)c1ccc2sc(C(=O)NCCCCCCC(=O)O)cc2c1 [Example 23] | 9 | 0.74
N=C(N)c1ccc2[nH]c(C(=O)NCCCCC(=O)O)cc2c1 [Example 27] | 100 | –
N=C(N)c1ccc2[nH]c(C(=O)NCCCCCCC(=O)O)cc2c1 [Example 26] | 2.7 | 0.7
CCCCCCC(CCCCCNC(=O)c1cc2cc(C(=N)N)ccc2[nH]1)C(=O)O (stereo not drawn) [Example 16] | > 100 | 19
CCCC(CC1CCC(CNC(=O)c2cc3cc(C(=N)N)ccc3[nH]2)CC1)C(=O)O (stereo not drawn) [Example 11] | > 100 | > 100
N=C(N)c1ccc(COc2ccc3oc(C(=O)NCC(=O)O)cc3c2)cc1 [Example 35] | 100 | 3.4
CC(CCCCNC(=O)c1cc2cc(C(=N)N)ccc2o1)CC(=O)O (stereo not drawn) [Example 32] | 0.23 | 0.01
N=C(N)c1ccc2[nH]c(C(=O)NCCOCCCC(=O)O)cc2c1 [Example 12] | 9 | 1.2
N=C(N)c1ccc2[nH]c(C(=O)NCCCCCC(=O)O)cc2c1 [Example 28] | 100 | 42.7
N=C(N)c1ccc2[nH]c(C(=O)NCc3ccc(CCC(=O)O)cc3)cc2c1 [Example 9] | 40 | 4.45
NCc1ccc2[nH]c(C(=O)NCCCCCCC(=O)O)cc2c1 [Example 36] | 25 | 4.23
CCCCC(CCCCNC(=O)c1cc2cc(C(=N)N)ccc2[nH]1)CC(=O)O (stereo not drawn) [Example 19] | 30 | 0.63
CC(CCCCNC(=O)c1cc2cc(C(=N)N)ccc2[nH]1)CC(=O)O (stereo not drawn) [Example 17] | 2.7 | 0.21
CCC(CCCCCNC(=O)c1cc2cc(C(=N)N)ccc2[nH]1)C(=O)O (stereo not drawn) [Example 14] | > 100 | 21.5
CC(CCCCNC(=O)c1cc2cc(C(=N)N)ccc2s1)CC(=O)O (stereo not drawn) [Example 31] | 3.3 | 0.32
CC(CCCCCNC(=O)c1cc2cc(C(=N)N)ccc2[nH]1)C(=O)O (stereo not drawn) [Example 13] | 28 | 5.25
Cc1c(C(=O)NCCCCCCC(=O)O)[nH]c2ccc(C(=N)N)cc12 [Example 33] | 5 | 2.6
Cn1c(C(=O)NCCCCCCC(=O)O)cc2cc(C(=N)N)ccc21 [Example 30] | 8 | 3
CCCCCCC(CCCCNC(=O)c1cc2cc(C(=N)N)ccc2[nH]1)CC(=O)O (stereo not drawn) [Example 20] | 70 | 0.8
CCC(CCCCNC(=O)c1cc2cc(C(=N)N)ccc2[nH]1)CC(=O)O (stereo not drawn) [Example 18] | 5.8 | 0.33
N=C(N)c1ccc2cc(C(=O)NCCCCCCC(=O)O)[nH]c2c1 [Example 25] | 0.8 | 0.13
N=C(N)c1ccc2oc(C(=O)NCCCCCCC(=O)O)cc2c1 [Example 22] | 0.27 | 0.04
CN(CCCCCCC(=O)O)C(=O)c1cc2cc(C(=N)N)ccc2[nH]1 [Example 21] | 2.5 | 0.38
